Molecules are shown by their SMILES. pIC50: −log10 of the molar value.

These results are taken from US5604234A, “Substituted thiol macrolactam immunomodulators” (Abbott Laboratories, priority 1995, dated 1997).

The experiment deals with human mixed lymphocyte reaction (MLR). As to the kind of experiment: human mixed lymphocyte reaction (MLR), serum free variation. Format: cell-based. The settings on record: serum-free medium AIM V, Table 3. On the procedure: In vitro Assay of Biological Activity (Serum Free MLR)
The in viitro immunosuppressant activity of the compounds of the present invention can also be determined using a variation of the human mixed lymphocyte reaction (MLR) assay described by Kino, T. et al. in Transplantation Proceedings, XIX(5):36-39, Suppl. 6 (1987). In this assay, the cell culture was performed in a serum-free medium, AIM V (GibcoBRL Life Technologies, Grand Island, N.Y.), instead of the usual RPMI 1640 plus 10% heat-inactivated fetal bovine serum medium. The final cell concentrations of the responder and stimulator peripheral blood mononuclear cells were, respectively, 5×10^5/mL and 2×10^6/mL of cells pooled from four donors.

With `CC[C@@H]1/C=C(\C)C[C@H](C)C[C@H](OC)[C@H]2O[C@@](O)(C(=O)C(=O)N3CCCC[C@H]3C(=O)O[C@H](/C(C)=C/[C@@H]3CC[C@H](SCC(C)=NO)[C@H](OC)C3)[C@H](C)[C@@H](O)CC1=O)[C@H](C)C[C@@H]2OC` [Example 83B], the pIC50 is 7.17.

`CC[C@@H]1/C=C(\C)C[C@H](C)C[C@H](OC)[C@H]2O[C@@](O)(C(=O)C(=O)N3CCCC[C@H]3C(=O)O[C@H](/C(C)=C/[C@@H]3CC[C@H](SC(=O)C(C)(C)C)[C@H](OC)C3)[C@H](C)[C@@H](O)CC1=O)[C@H](C)C[C@@H]2OC` [Example 85]: the pIC50 (Homo sapiens, Lymphocyte) is 9.32.

Where the note is “Homo sapiens, Lymphocyte”, `CC[C@@H]1/C=C(\C)C[C@H](C)C[C@H](OC)[C@H]2O[C@@](O)(C(=O)C(=O)N3CCCC[C@H]3C(=O)O[C@H](/C(C)=C/[C@@H]3CC[C@H](SC(=O)C(C)C)[C@H](OC)C3)[C@H](C)[C@@H](O)CC1=O)[C@H](C)C[C@@H]2OC` [Example 86] gave a pIC50 of 8.77.

As to `CCC(=O)S[C@H]1CC[C@@H](/C=C(\C)[C@H]2OC(=O)[C@@H]3CCCCN3C(=O)C(=O)[C@]3(O)O[C@H]([C@@H](OC)C[C@@H](C)C/C(C)=C/[C@@H](CC)C(=O)C[C@H](O)[C@H]2C)[C@@H](OC)C[C@H]3C)C[C@H]1OC` [Example 88], the pIC50 (Homo sapiens, Lymphocyte) was 9.21.

In turn, `CCNC(=O)S[C@H]1CC[C@@H](/C=C(\C)[C@H]2OC(=O)[C@@H]3CCCCN3C(=O)C(=O)[C@]3(O)O[C@H]([C@@H](OC)C[C@@H](C)C/C(C)=C/[C@@H](CC)C(=O)C[C@H](O)[C@H]2C)[C@@H](OC)C[C@H]3C)C[C@H]1OC` [Example 91] gave a pIC50 (Homo sapiens, Lymphocyte) of 10.05.

Take `CCCNC(=O)S[C@H]1CC[C@@H](/C=C(\C)[C@H]2OC(=O)[C@@H]3CCCCN3C(=O)C(=O)[C@]3(O)O[C@H]([C@@H](OC)C[C@@H](C)C/C(C)=C/[C@@H](CC)C(=O)C[C@H](O)[C@H]2C)[C@@H](OC)C[C@H]3C)C[C@H]1OC` [Example 92]: the pIC50 (Homo sapiens, Lymphocyte) is 9.59.

With `CC[C@@H]1/C=C(\C)C[C@H](C)C[C@H](OC)[C@H]2O[C@@](O)(C(=O)C(=O)N3CCCC[C@H]3C(=O)O[C@H](/C(C)=C/[C@@H]3CC[C@H](SC(=O)NC(C)C)[C@H](OC)C3)[C@H](C)[C@@H](O)CC1=O)[C@H](C)C[C@@H]2OC` [Example 93], the negative logarithm of the IC50 (pIC50) (Homo sapiens, Lymphocyte) is 9.52.

On to `CC[C@@H]1/C=C(\C)C[C@H](C)C[C@H](OC)[C@H]2O[C@@](O)(C(=O)C(=O)N3CCCC[C@H]3C(=O)O[C@H](/C(C)=C/[C@@H]3CC[C@H](SC(=O)Nc4ccccc4)[C@H](OC)C3)[C@H](C)[C@@H](O)CC1=O)[C@H](C)C[C@@H]2OC` [Example 94], for which, where the note is “Homo sapiens, Lymphocyte”, the pIC50 was 8.72. Compared with the last compound, the pIC50 is 0.80 log units lower.

Under “Homo sapiens, Lymphocyte”, `CCOC(=O)CNC(=O)S[C@H]1CC[C@@H](/C=C(\C)[C@H]2OC(=O)[C@@H]3CCCCN3C(=O)C(=O)[C@]3(O)O[C@H]([C@@H](OC)C[C@@H](C)C/C(C)=C/[C@@H](CC)C(=O)C[C@H](O)[C@H]2C)[C@@H](OC)C[C@H]3C)C[C@H]1OC` [Example 95] had a pIC50 of 7.96.

On to `CC[C@@H]1/C=C(\C)C[C@H](C)C[C@H](OC)[C@H]2O[C@@](O)(C(=O)C(=O)N3CCCC[C@H]3C(=O)O[C@H](/C(C)=C/[C@@H]3CC[C@H](SC(=O)N(C)C)[C@H](OC)C3)[C@H](C)[C@@H](O)CC1=O)[C@H](C)C[C@@H]2OC` [Example 96], for which the pIC50 (Homo sapiens, Lymphocyte) was 10.00.

`CC[C@@H]1/C=C(\C)C[C@H](C)C[C@H](OC)[C@H]2O[C@@](O)(C(=O)C(=O)N3CCCC[C@H]3C(=O)O[C@H](/C(C)=C/[C@@H]3CC[C@H](SC(=O)N(CC)CC)[C@H](OC)C3)[C@H](C)[C@@H](O)CC1=O)[C@H](C)C[C@@H]2OC` [Example 97] showed a pIC50 (Homo sapiens, Lymphocyte) of 9.30.

Regarding `CC[C@@H]1/C=C(\C)C[C@H](C)C[C@H](OC)[C@H]2O[C@@](O)(C(=O)C(=O)N3CCCC[C@H]3C(=O)O[C@H](/C(C)=C/[C@@H]3CC[C@H](SC(=O)N4CCOCC4)[C@H](OC)C3)[C@H](C)[C@@H](O)CC1=O)[C@H](C)C[C@@H]2OC` [Example 98], the pIC50 (Homo sapiens, Lymphocyte) is 9.70.
